Values after ≈ are worked out from the molar mass of the structure shown.
Assays:
CnTS = CnTS (Cryptococcus neoformans, UniProt P0CS12); type: biochemical
Procedure: (§1) Enzymatic inhibition assay: The compounds hereby analyzed were previously dissolved in DMSO. The inhibitor concentrated solution was obtained by dissolving 2 mg of compound in 1 mL of DMSO. Next, solutions thus obtained were successively preserved and the […], and the stability of their working conditions was constantly controlled. The spectrophotometrical determinations of enzymatic reaction kinetics were carried out using a Parkin-Elmer λ16 spectrophotometer, provided with a multicell system which was maintained at the constant temperature of 20 C. degrees, with a HAAAKE F3C thermostatted bath.
(§2) The elaboration of the data was carried out using Kaleidagraph 3.0; this software was provided by Macintosh (Adelbeck, Software Reading, Pa., 1989, version 2.3). The measurement of Ki (inhibition constant) was obtained through enzymatic inhibition essays carried out under stationary conditions. […] The enzyme is added finally. The assay aiming at controlling TS enzymatic activity is repeated at regular intervals. […] In this case inhibition constants were obtained through a non-linear regression analysis, which utilized of the least squared method, of the enzymatic reaction initial speeds relating to the inhibitor concentration; equation was the following:
Vi=Vmax*(1−([I])/([I]+(Ki*(1+([s]/Km))))), where
Vi=enzymatic reaction initial velocity, Vmax=enzymatic reaction maximum velocity, I=inhibitor concentration, Ki=inhibition constant, S=substrate concentration, Km=Michaelis-Menten.
Using this equation it is possible to obtain Ki making use of a minimal amount of experimental data. The specificity index relating to each of the compounds (Bio. Med. Chem. ) refers to the relation between KihTS/Kiother enzyme.

hDHFR (human DHFR) = molecular target: T1, hDHFR (human DHFR) (Homo sapiens, UniProt P00374); assay: Enzymatic inhibition assay (Ki), human DHFR; type: biochemical
T1 construct: made in house; host or cells: Escherichia coli chi2913
T1 sequence (P00374 1-187): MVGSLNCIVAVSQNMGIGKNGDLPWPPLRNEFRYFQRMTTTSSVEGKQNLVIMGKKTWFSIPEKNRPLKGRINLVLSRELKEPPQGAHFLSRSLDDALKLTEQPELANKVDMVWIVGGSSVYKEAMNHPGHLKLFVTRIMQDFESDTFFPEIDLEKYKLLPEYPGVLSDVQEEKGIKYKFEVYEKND
Procedure: The purified enzyme has been stored at −80° C. […] The enzymatic assays for the measurements of the Km consist in measuring the initial rate of the enzymatic reaction in presence of variable and increasing substrate (FAH2).
as §1
as §2, with “The” for “The elaboration of the data was carried out using Kaleidagraph 3.0; this software was provided by Macintosh (Adelbeck, Software Reading, Pa., 1989, version 2.3). The”, “following: […]” for “following:”

VERO cells = assay: Citotoxicity assay (MTT test on VERO cells); type: cell-based; conditions: for MTT test, percentage of cellular growth: VERO cells, 24-hour incubation
Procedure: Aiming at evaluating the citotoxicity level, the compounds included in the present invention were submitted to the MTT assay, by using VERO cells on MEM soil/ground which was previously added with […]), penicillin (1%) (50 U/ml), streptomycine (50 μg/ml) e L-glutamine (1%) according to the Ishioka method (1988). Afterwards the cultures have been observed for 2 days through microscope at indirect light, and the living cells have been quantified in a Burker camera using the Tripan blue exclusion assay.
Later several increasing concentrations of the analyzed compound were added thereto and, after a 24-hour incubation period, the mitochondrial dehydrogenase activity was measured in the living cells (MTT assay) (Mosmann, T. 1983), by using a sample of the hereof compound which had not been previously as a comparison.

[1] = test system: S. epidermidis strains (multiresistant); assay: Sensitivity assay and growth curve, multiresistant S. epidermidis strains; type: cell-based, Staphylococcus epidermidis
Procedure: (§3) The bacterial cultures were obtained by sowing bacteria in Mueller-Hinton (Difco) stirring at 37 C for 24 hours, and were then diluted, after reaching an appreciable level of exponential growth, using a growth plot in order to get a […] CFU/mL inoculum.
(§4) Following, the obtained cultures were put in contact with growing concentrations of the present compound. Furthermore, it was measured the minimal concentration inhibiting the growth (MIC) of each of these compounds. In Table 2 several MIC obtained by different bacterial pathogenic strains have been reported that were treated using compounds of the present invention and were also compared with those obtained through ciprofluoxacin (cpx).

Listeria monocytogenes 3 = assay: Sensitivity assay (MIC); type: cell-based
Procedure: (§5) The anti-bacterial properties of the compounds hereby described were evaluated towards: a) bacterial native strains comprehending gram-positive and gram-negative bacteria. The bacterial cultures were obtained by sowing bacteria in Mueller-Hinton (Difco) stirring at 37 C for 24 hours, and were then diluted, after reaching an appreciable level of exponential growth, using a growth plot in order to get a […] CFU/mL inoculum. Following, the obtained cultures were put in contact with growing concentrations of the present compound. Furthermore, it was measured the minimal concentration inhibiting the growth (MIC) of each of these compounds. In Table 2 several MIC obtained by different bacterial pathogenic strains have been reported that were treated using compounds of the present invention and were also compared with those obtained through ciprofluoxacin (cpx).

[2] = test system: Staphylococcus aureus ATCC29213; assay: Sensitivity assay (MIC); type: cell-based
Procedure: as §5

[3] = test system: Staphylococcus haemolyticus ATCC 2997; assay: Sensitivity assay (MIC); type: cell-based
Procedure: as §5

[4] = test system: Listeria monocytogenes ATCC 4428; assay: Sensitivity assay (MIC); type: cell-based
Procedure: as §5

Listeria monocytogenes 4 = assay: Sensitivity assay (MIC); type: cell-based
Procedure: as §5

[5] = test system: Staphylococcus aureus 343; assay: Sensitivity assay (MIC); type: cell-based
Procedure: as §5

Citrobacter 224 = assay: Sensitivity assay (MIC); type: cell-based
Procedure: as §5

[6] = test system: Staphylococcus aureus K28; assay: Sensitivity assay (MIC); type: cell-based
Procedure: as §5

Listeria monocytogenes 5 = assay: Sensitivity assay (MIC); type: cell-based
Procedure: as §5

Streptococcus 42 = assay: Sensitivity assay (MIC); type: cell-based
Procedure: as §5

Escherichia coli 292 = assay: Sensitivity assay (MIC); type: cell-based
Procedure: as §5

Listeria monocytogenes 7 = assay: Sensitivity assay (MIC); type: cell-based
Procedure: as §5

[7] = test system: Staphylococcus aureus 341; assay: Sensitivity assay (MIC); type: cell-based
Procedure: as §5

[8] = test system: Staphylococcus saprophiticus ATCC15305; assay: Sensitivity assay (MIC); type: cell-based
Procedure: as §5

[9] = test system: Enterococcus faecalis ATCCC 29212; assay: Sensitivity assay (MIC); type: cell-based
Procedure: as §5

Listeria monocytogenes 8 = assay: Sensitivity assay (MIC); type: cell-based
Procedure: as §5

Listeria monocytogenes 6 = assay: Sensitivity assay (MIC); type: cell-based
Procedure: as §5

Escherichia coli 256 = assay: Sensitivity assay (MIC); type: cell-based
Procedure: as §5

[10] = test system: multiresistant strains (clinical isolates); assay: Sensitivity assay on 23 isolated multiresistant bacterial strains; type: cell-based; conditions: multiresistant strains taken into consideration
Procedure: as §3, §4

CnTS, sequence (P0CS12 whole entry): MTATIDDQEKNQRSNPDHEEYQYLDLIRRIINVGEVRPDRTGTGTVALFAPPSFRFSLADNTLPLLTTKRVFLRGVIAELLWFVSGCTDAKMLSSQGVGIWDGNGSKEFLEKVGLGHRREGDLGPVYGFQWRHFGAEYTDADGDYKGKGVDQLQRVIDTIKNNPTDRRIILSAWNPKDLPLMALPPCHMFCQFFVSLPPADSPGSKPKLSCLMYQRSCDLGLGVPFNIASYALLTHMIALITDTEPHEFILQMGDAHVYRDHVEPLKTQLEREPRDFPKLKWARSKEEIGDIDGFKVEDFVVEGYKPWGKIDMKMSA

Structure (SMILES) | Ki (CnTS) | Ki (hDHFR (human DHFR)) | SSI hTS vs hDHFR (hDHFR (human DHFR)) | Minimum inhibitory concentration (MIC) (Listeria monocytogenes 3) | Minimum inhibitory concentration (MIC) [2] | Minimum inhibitory concentration (MIC) [3] | Minimum inhibitory concentration (MIC) [4] | Minimum inhibitory concentration (MIC) (Listeria monocytogenes 4) | Minimum inhibitory concentration (MIC) [5] | Minimum inhibitory concentration (MIC) (Citrobacter 224) | Minimum inhibitory concentration (MIC) [6] | Minimum inhibitory concentration (MIC) (Listeria monocytogenes 5) | Minimum inhibitory concentration (MIC) (Streptococcus 42) | Minimum inhibitory concentration (MIC) (Escherichia coli 292) | Minimum inhibitory concentration (MIC) (Listeria monocytogenes 7) | Minimum inhibitory concentration (MIC) [7] | Minimum inhibitory concentration (MIC) [8] | Minimum inhibitory concentration (MIC) [9] | Minimum inhibitory concentration (MIC) (Listeria monocytogenes 8) | Minimum inhibitory concentration (MIC) (Listeria monocytogenes 6) | further results
Cc1cc(O)c(C(C)C)cc1C1(c2cc(C(C)C)c(O)cc2C)OC(=O)c2c1ccc1ccccc21 [Compound 2, 33,3-Bis-(4-hydroxyl-5-isopropyl-2-methylphenyl)-3H-naphtho(1,2-c)furan-1-one] | 0.6 µM | 35 µM | 88 | – | – | – | – | – | – | – | – | – | – | – | – | – | – | – | – | – | –
O=C1OC(c2ccc(O)c(I)c2)(c2ccc(O)c(I)c2)c2ccc3ccccc3c21 [Compound 3] | 4.5 µM | 3.9 µM | 0.01 | – | – | – | – | – | – | – | – | – | – | – | – | – | – | – | – | – | –
O=C1OC(c2ccc(O)c(Br)c2)(c2ccc(O)c(Br)c2)c2ccc3ccccc3c21 [Compound 4] | 2.7 µM | 33 µM | 0.2 | – | – | – | – | – | – | – | – | – | – | – | – | – | – | – | – | – | –
O=C1OC(c2cc(Br)c(O)c(Br)c2)(c2cc(Br)c(O)c(Br)c2)c2ccc3ccccc3c21 [Compound 5, 3,3-bis-(3,5-bromo-4-hydroxyphenyl)-3H-naphtho(1,2-c)furan-1-one] | 13 µM | 69 µM | 0.3 | 2.5 µg/mL (≈ 3.66 µM) | 2.5 µg/mL (≈ 3.66 µM) | 2.5 µg/mL (≈ 3.66 µM) | 2.5 µg/mL (≈ 3.66 µM) | 2.5 µg/mL (≈ 3.66 µM) | 2.5 µg/mL (≈ 3.66 µM) | >25 µg/mL | 2.5 µg/mL (≈ 3.66 µM) | 2.5 µg/mL (≈ 3.66 µM) | 2.5 µg/mL (≈ 3.66 µM) | >25 µg/mL | 2.5 µg/mL (≈ 3.66 µM) | 2.5 µg/mL (≈ 3.66 µM) | 1 µg/mL (≈ 1.46 µM) | 2.5 µg/mL (≈ 3.66 µM) | 2.5 µg/mL (≈ 3.66 µM) | 2.5 µg/mL (≈ 3.66 µM) | citotoxicity (VERO cells; 1 mg/L, VERO cells (Table 3)): not to be citotoxic; MTT test, percentage of cellular growth (VERO cells; 1.56 mg/L): 100 percentage; MTT test, percentage of cellular growth (VERO cells; 3.12 mg/L): 100 percentage; MTT test, percentage of cellular growth (VERO cells; 6.25 mg/L): 100 percentage; MTT test, percentage of cellular growth (VERO cells; 12.05 mg/L): 100 percentage; MTT test, percentage of cellular growth (VERO cells; 25 mg/L): 100 percentage; MTT test, percentage of cellular growth (VERO cells; 50 mg/L): >100 percentage; inhibitory effect on S. epidermidis growth (FIG. 1) ([1]; 0.1 mg/L): No inhibitory effect; antibacterial activity on S. epidermidis growth (FIG. 1) ([1]; 0.5 mg/L, after a 8 hours period): antibacterial activity becomes evident; antibacterial effect on S. epidermidis growth (FIG. 1) ([1]; 1 mg/L): best result; concentration to which the strain is sensitive ([1]; S. epidemidis strain resistant to 17 antibiotics): 0.5 mg/L; lowest MIC on S. epidermidis strains ([1]; multiresistant S. epidermidis strains): 0.5 to 1 mg/L; Minimum inhibitory concentration (MIC) (Escherichia coli 256): >25 µg/mL; activity on multiresistant strains [10]: active on the major part of the multiresistant strains
O=C1OC(c2ccc(O)cc2)(c2ccc(O)cc2)c2ccc3ccccc3c21 [Compound 6, 3,3-Bis-(4-hydroxyphenyl)-1H-naphtho[1,2-c]furan-3-one] | – | 13 µM | – | – | – | – | – | – | – | – | – | – | – | – | – | – | – | – | – | – | –
O=C1OC(c2ccc(O)c(Cl)c2)(c2ccc(O)c(Cl)c2)c2ccc3ccccc3c21 [Compound 7, 3,3-Bis-(3-chlorine-4-hydroxyphenyl)1H-naphtho(1,2-c)furan-3-one] | 8.1 µM | – | 1 | – | – | – | – | – | – | – | – | – | – | – | – | – | – | – | – | – | –
O=C1OC(c2ccc(O)c(F)c2)(c2ccc(O)c(F)c2)c2ccc3ccccc3c21 [Compound 8, 3,3-Bis-(3-fluorine-4-hydroxyphenyl)1H-naphtho(1,2-c)furan-3-one] | 3.5 µM | 109 µM | 1 | 25 µg/mL (≈ 61.8 µM) | 25 µg/mL (≈ 61.8 µM) | 25 µg/mL (≈ 61.8 µM) | 25 µg/mL (≈ 61.8 µM) | 25 µg/mL (≈ 61.8 µM) | 25 µg/mL (≈ 61.8 µM) | >50 µg/mL | 25 µg/mL (≈ 61.8 µM) | 25 µg/mL (≈ 61.8 µM) | 25 µg/mL (≈ 61.8 µM) | >50 µg/mL | 25 µg/mL (≈ 61.8 µM) | 25 µg/mL (≈ 61.8 µM) | 25 µg/mL (≈ 61.8 µM) | 25 µg/mL (≈ 61.8 µM) | 25 µg/mL (≈ 61.8 µM) | 25 µg/mL (≈ 61.8 µM) | Minimum inhibitory concentration (MIC) (Escherichia coli 256): >50 µg/mL
O=C(O)c1cn(C2CC2)c2cc(N3CCNCC3)c(F)cc2c1=O [cpx, ciprofluoxacin, reference compound] | – | – | – | 2.5 µg/mL (≈ 7.54 µM) | 0.5 µg/mL (≈ 1.51 µM) | 2.5 µg/mL (≈ 7.54 µM) | 2.5 µg/mL (≈ 7.54 µM) | 1 µg/mL (≈ 3.02 µM) | 0.5 µg/mL (≈ 1.51 µM) | >25 µg/mL | 0.5 µg/mL (≈ 1.51 µM) | 2.5 µg/mL (≈ 7.54 µM) | >5 µg/mL | >25 µg/mL | 1 µg/mL (≈ 3.02 µM) | 1.2 µg/mL (≈ 3.62 µM) | 1 µg/mL (≈ 3.02 µM) | 12.5 µg/mL (≈ 37.7 µM) | 1 µg/mL (≈ 3.02 µM) | 2.5 µg/mL (≈ 7.54 µM) | Minimum inhibitory concentration (MIC) (Escherichia coli 256): >25 µg/mL

— patent US20100048692A1, “Naphthofuranone Derivatives as Specific Inhibitors of Thymidylate Synthases” (priority 2006, published 2010)
